The results in this text go back to patent US12729194B2, “Compounds for the treatment of human immunodeficiency virus” (priority 2019, dated 2026).

The subject of experiment [1] is HIV-1 with HIV-1AD8 Env. As to the kind of experiment: microbe, parasite or virus in culture. It counts as cell-based. Particulars: Human immunodeficiency virus 1; Cf2Th-CD4/CCR5 target cells, 48 hours, luciferase; means and standard errors of four experiments; read-out: 50% inhibitory concentration (IC50), AD8.
Experiment [2] relates to HIV-1 with HIV-1JR-FL Env. As to the kind of experiment: microbe, parasite or virus in culture. In kind it is cell-based. Particulars: Human immunodeficiency virus 1; Cf2Th-CD4/CCR5 target cells, 48 hours, luciferase; means and standard errors of four experiments; read-out: 50% inhibitory concentration (IC50), JR-FL.
The subject of experiment [3] is envelope glycoproteins of the amphotropic murine leukemia virus (AMLV). As to the kind of experiment: microbe, parasite or virus in culture. Particulars: Cf2Th-CD4/CCR5 target cells, 48 hours, luciferase, specificity control, read-out: 50% inhibitory concentration (IC50), AMLV. It counts as cell-based.
Experiment [4] relates to HIV-1AD8 Env on VLPs. Put plainly: Reversibility of compound effects on VLP Env conformation (19b antibody recognition after washing). The protocol:
(§1) Characterization of VLP-associated Env: To prepare VLPs with HIV-1AD8 Env, 150-mm dishes of 30-40% confluent A549-Gag/Env cells were seeded and, on the following day, treated with 2 μg/ml doxycycline. Approximately 72 hours after induction, cell supernatants were harvested and cleared by low-speed centrifugation (500×g for 15 minutes at 4° C.) and 0.45-μ filtration. VLPs were pelleted by centrifugation at 100,000×g for one hour at 4° C. The resuspended VLP preparation was clarified by low-speed centrifugation. BMS-806 and compounds described herein were added to the clarified VLP-containing suspensions. In some cases, the VLP-compound mixtures were irradiated with a 100-watt, 365-nm ultraviolet (UV) lamp for 10 minutes at room temperature. For all UV studies, exposure of the samples to visible light was minimized.
For studies of the reversibility of effects, the compounds were added to the VLPs and mixed for several seconds at room temperature. Then the VLPs were pelleted (20,000×g for 30 minutes at 4° C.) twice, washing with 1.5 ml PBS with 2% DMSO. The pelleted VLPs were resuspended in 1 ml PBS with 2% DMSO and incubated at room temperature for various lengths of time (20 minutes—3 weeks). Control VLPs were incubated in the continued presence of the compounds at room temperature for the same length of time. Then the VLPs were pelleted (20,000×g for 30 minutes at 4° C.) and the pellet incubated with 1.5% Triton X-100 for 30 minutes at 4° C. The VLP lysates were centrifuged (20,000×g for 30 minutes at 4° C.) and the supernatants were incubated with antibodies (10 μg/ml) in a 50-μl volume with 25 mg/ml of Protein A-Sepharose beads for one hour at 4° C. The beads were pelleted (1000 rpm for 1 minute at room temperature) and washed three times with 1 ml wash buffer with 1% Triton X-100. The beads were suspended in NuPAGE LDS Sample Buffer (ThermoFisher), boiled and analyzed by Western blot, as described above.
The BMS-806-induced decrease in binding of the 19b anti-V3 antibody can be used as an indicator of BMS-806-Env binding, allowing estimation of the stability of the Env-compound complex. BMS-806 and BMS-529 were incubated with the HIV-1AD8 Env on VLPs. The VLPs were then washed and incubated at room temperature for various lengths of time in a buffer with (+/+) or without (+/−) compound. After this incubation, Env conformation was assessed using the 19b anti-V3 antibody, the 2G12 antibody (the binding of which is not affected by BMS-806), and a negative control human immunoglobulin (hIgG) preparation. 19b recognition of Env in the washed samples (+/−) was compared with those in the samples continuously incubated with the compound (+/+) and the untreated samples (−) (FIG. 4). […] Despite this slow rate of dissociation of compounds described herein from Env, the binding and the consequent effects of these compounds on Env conformation appear to be reversible.

Experiment [5] concerns VLP HIV-1AD8 Env. As to the kind of experiment: Antibody recognition of VLP-associated Env. The protocol:
as §1
For studies of the binding of ligands (antibodies, CD4-Ig and C34-Ig) to detergent-solubilized VLP Env, VLPs prepared as described above were pelleted (20,000×g for 30 minutes at 4° C.). The pellet was incubated with 1.5% Triton X-100 for 30 minutes at 4° C. The VLP lysates were centrifuged (20,000×g for 30 minutes at 4° C.) and the supernatants were incubated with ligands (10 μg/ml) in a 50-μl volume with 25 mg/ml of Protein A-Sepharose beads for one hour at 4° C. The beads were pelleted (1000 rpm for 1 minute at room temperature), washed three times with 1 ml wash buffer with 1% Triton X-100, suspended in LDS Sample Buffer and analyzed by Western blot, as described above.
In a second assay format, the effect of the compounds was analyzed on the binding of antibodies to Env on intact VLPs, in the absence of detergent. In this case, VLPs in A549-Gag/Env supernatants, clarified as described above, were pelleted at 100,000×g for one hour at 4° C. The pellet was resuspended in PBS and the VLPs pelleted at 20,000×g for 30 minutes at 4° C. The VLPs were resuspended in PBS and incubated with antibodies (10 μg/ml) in a 100-μl volume for one hour at 4° C. The VLPs were then pelleted (20,000×g for 30 minutes at 4° C.) and washed with PBS three times. The VLP pellet was then solubilized in 1.5% Triton X-100 for 30 minutes at 4° C., after which the VLP lysates were clarified by centrifugation at 20,000×g for 30 minutes at 4° C. The supernatants were incubated with 50 μl of Protein A-Sepharose beads for one hour at 4° C. The beads were pelleted (1000 rpm for 1 minute at room temperature), washed three times with 1 ml wash buffer with 1% Triton X-100, suspended in LDS Sample Buffer, and analyzed by Western blot, as described above.

Molecules are shown by their SMILES.

`COc1ccnc2[nH]cc(C(=O)C(=O)N3CCN(C(=O)c4ccccc4)C[C@H]3C)c12` [BMS-806, reference compound]: the IC50 is 0.4 nM in experiment [1], 1.6 nM in experiment [2] and above 100 nM in experiment [3]. Besides, in experiment [4] (twenty-four hours after washing, room temperature), the “Conformational effect on 19b binding after washing” value was “much less evident”. For the same molecule, the “Recognition of VLP Env by poorly neutralizing antibodies” value in experiment [5] was “reduced recognition of the uncleaved Env”. Besides, the “Recognition of mature VLP gp120 Env by quaternary-epitope bNAbs” value in experiment [5] (PG9, PG16, PGT145, PGT151, 35O22) was “enhanced the recognition of the mature gp120 Env”.

`COc1ccc(-c2ccc(CNC(=O)c3c(F)c(F)c(N=[N+]=[N-])c(F)c3F)o2)c2[nH]cc(C(=O)C(=O)N3CCN(C(=O)c4ccccc4)CC3)c12` [AEG-II-168]: the results for the IC50 in experiment [1], in experiment [2] and in experiment [3] were 2.8 nM, 1.5 nM and above 100 nM, respectively. In addition, in experiment [4] (after washing), the “Durability / reversibility of Env conformational effects (in words)” value is recorded as “at least three weeks”. Besides, in experiment [5] (compound plus UV irradiation, washed, two weeks without compound), the “VLP Env recognition by poorly neutralizing antibodies two weeks after treatment” value is “lowered Env recognition by poorly neutralizing antibodies”. The “VLP Env recognition by bNAbs two weeks after treatment” value in experiment [5] (compound plus UV irradiation, PG9, PGT145, PGT151, 35022, 2F5, 4E10, 10E8) is listed as “increased recognition by several bNAbs”.
